Experimental findings from paper PMC6950571 (Marine Drugs, 2019) are described below.

This assay deals with T1, rα3β2 nAChRs expressed in Xenopus laevis oocytes (Rattus norvegicus, UniProt P04757+P12390).
T1 construct: expressed in transfected cells; host or cells: Xenopus laevis oocytes, injected with α3 and β2 mRNA; clones from Dr. Steven Heinemann, Salk Institute
Description: cell-based. To be noted: SEM.

Bridge positions count the residues as written; N and C are the ends. Peptide text beside a SMILES is read from it.

T1 sequence (P04757 26-499 limits assumed): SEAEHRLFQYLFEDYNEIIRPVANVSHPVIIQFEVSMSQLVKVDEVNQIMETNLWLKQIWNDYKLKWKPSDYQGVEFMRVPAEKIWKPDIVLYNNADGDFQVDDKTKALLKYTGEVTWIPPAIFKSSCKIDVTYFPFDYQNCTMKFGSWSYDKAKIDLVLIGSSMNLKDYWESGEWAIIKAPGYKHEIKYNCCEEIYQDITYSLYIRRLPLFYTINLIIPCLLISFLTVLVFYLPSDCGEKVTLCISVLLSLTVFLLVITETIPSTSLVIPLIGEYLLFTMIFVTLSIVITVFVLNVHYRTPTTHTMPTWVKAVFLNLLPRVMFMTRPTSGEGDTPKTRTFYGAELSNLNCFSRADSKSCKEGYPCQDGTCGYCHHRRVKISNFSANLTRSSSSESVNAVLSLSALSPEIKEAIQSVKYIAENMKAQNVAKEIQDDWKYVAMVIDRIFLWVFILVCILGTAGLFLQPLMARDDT
T1 sequence (P12390 25-500 limits assumed): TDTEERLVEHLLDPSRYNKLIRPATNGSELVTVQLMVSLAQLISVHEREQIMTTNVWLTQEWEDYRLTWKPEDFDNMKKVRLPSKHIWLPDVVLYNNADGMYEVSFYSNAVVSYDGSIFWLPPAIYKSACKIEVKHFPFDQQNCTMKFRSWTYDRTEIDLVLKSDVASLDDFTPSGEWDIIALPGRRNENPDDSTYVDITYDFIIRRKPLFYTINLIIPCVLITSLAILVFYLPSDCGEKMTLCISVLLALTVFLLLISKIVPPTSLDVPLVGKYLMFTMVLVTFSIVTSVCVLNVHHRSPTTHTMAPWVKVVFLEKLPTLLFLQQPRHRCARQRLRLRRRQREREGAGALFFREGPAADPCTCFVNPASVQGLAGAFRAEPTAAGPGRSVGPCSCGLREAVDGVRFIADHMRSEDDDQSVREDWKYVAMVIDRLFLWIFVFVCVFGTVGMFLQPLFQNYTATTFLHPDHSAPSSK

One may read the IC50 as the concentration that inhibits the measured activity by half. A higher IC50 goes with a need for much substance. For the compound `NCCCC[C@@H]1NC(=O)[C@H](CO)NC(=O)[C@H](CO)NC(=O)[C@H](CO)NC(=O)[C@H](Cc2c[nH]c3ccccc23)NC(=O)[C@H](Cc2ccc(O)cc2)NC(=O)[C@@H]2CSSC[C@H](NC(=O)[C@@H](NC(=O)[C@@H](N)Cc3c[nH]c4ccccc34)CSSC[C@@H](C(=O)O)NC(=O)[C@H](Cc3c[nH]c4ccccc34)NC1=O)C(=O)N[C@@H](CO)C(=O)N[C@@H](Cc1ccc(O)cc1)C(=O)N1CCC[C@H]1C(=O)NCC(=O)N2` [KTM] (H-WCCSYPGCYWSSSKWC-OH; disulfide 2-16, 3-8), the IC50 turned out to be 0.19 ± 0.02 nM.
